Results on eight compounds are retold here after patent US12163161B2, “In vitro method for identifying thoracic aortic aneurysms (TAA) in a subject” (CENTRO NACIONAL DE INVESTIGACIONES CARDIOVASCULARES CARLOS …, priority 2016, dated 2024).

Test [1] addresses T1, Nos2 (Mus musculus, UniProt P29477).
T1 construct: endogenous in cells; host or cells: primary mouse VSMCs transduced with siCtl or siAdamts1 lentivirus
Nature of the test: NO / total NOx production in VSMCs transduced with siAdamts1 and treated with Nos2 inhibitors. It counts as cell-based. As to conditions: FIG. 16: 1400W (2 μm), AG, GW273629 (20 μm), 1-NIL (3 mM), Clotrimazole (20 μM). The method, then:
FIG. 17. Representative images (n=4) of NO production (red) and GFP fluorescence (green) in unfixed VSMCs transduced with siCtl or siAdamts1 and treated with the Nos2 inhibitors as indicated. Bar, 50 μm.
Mouse vascular smooth muscle cells (VSMCs) were isolated and grown as described (Esteban et al., 2011). All experiments were performed during passages 3-7. VSMCs were infected at a multiplicity of infection (MOI)=3 over 5 h. The medium was then replaced with fresh DMEM supplemented with 10% FBS, and cells were cultured for 3 more days, serum-starved for 48 h and then stimulated with Ang-II for 6 h for protein assays or 4 h for mRNA expression analysis.

Test [2] deals with NOS2 (Homo sapiens, UniProt P35228). The conditions noted are these: as reported previously; cited from earlier work.
For test [3], the system named is siAdamts1-transduced C57BL/6 mice. Briefly: Aortopathy induced by siAdamts1 lentivirus (aortic Adamts1 knockdown) in C57BL/6 mice. It counts as in vivo, mouse. As to conditions: for Elastic fiber fragmentation (elastolysis, elastin breaks) / Fibrosis (collagen content): aortic sections, end of experiment; for Aortic dilation (AsAo and AbAo diameter) induced by siAdamts1: anti-TGFβ 10 mg/kg i.p. 3 times per week, L-NAME 0.5 mg/ml in drinking water; for Systolic and diastolic BP (hypotension) in siAdamts1-transduced mice: same treatments as E4. The text has this:
(§1) Animal procedures were approved by the CNIC Ethics Committee and conformed to European Union guidelines for the care and experimental use of animals. Adamts1+/− mice were obtained from the European Mouse Mutant Archive [(EM:02291) B6; 129P2-Adamts1<tm1Dgen>/H] and carried a LacZ-Neo cassette to replace a genomic sequence (c7784) between exon1 and 2 in the Adamts1 target allele. Fbn1C1039G/+ mice (Judge et al., 2004), harboring a mutation in the Fbn1 gene, and Nos2−/− mice (Laubach et al., 1995) were obtained from Jackson Laboratories (JAX mice stock #012885 and 007072, respectively). These 3 strains had been previously backcrossed to C57BL/6 for more than nine generations. All mice were genotyped by PCR of tail samples using the following primers: Adamts1 mice (5′-[…]-3′(SEQ ID NO: 5), 5′-[…] (SEQ ID NO: 6)/[…]-3′ (SEQ ID NO: 7)); Nos2−/− mice (5′[…] 3′ (SEQ ID NO: 8); 5′ […] 3′(SEQ ID NO: 9), 5′ […] 3′) (SEQ ID NO: 10); Fbn1C1039G/+ mice (5′CTCATCATTTTTGGCCAGTTG 3′ (SEQ ID NO: 11), 5′GCACTTGATGCACATTCACA 3′ (SEQ ID NO: 12)). Wild-type littermates were used as controls unless otherwise specified. Mice were treated with Ang-II (Sigma-Aldrich) at 1 μg/kg/min or losartan (Sigma Aldrich) at 10 mg/kg/day using subcutaneous osmotic minipumps (Alzet Corp). The monoclonal pan-antibody against TGFβ1, 2, 3 clone 1D11 (BioXcell) was injected intraperitoneally 3 times per week at 10 mg/kg.
(§2) Arterial blood pressure (BP) was measured in mouse tails using the automated BP-2000 Blood Pressure Analysis System (Visitech Systems, Apex, NC, USA). In brief, mice were trained for BP measurements every day for one week. After training, BP was measured one day before treatment or before lentiviral infection to determine the baseline BP values in each mouse cohort. Measurements were repeated several times during experiments. BP measurements were recorded in mice located in a tail-cuff restrainer, over a warmed surface (37° C.). Fifteen consecutive systolic and diastolic BP measurements were made, and the last ten readings per mouse were recorded and averaged.
(§3) For in vivo ultrasound images, the aortic diameter was monitored in isofluorane-anesthetized mice (2% isofluorane) by high-frequency ultrasound with a VEVO 2100 echography device (VisualSonics, Toronto, Canada). Maximal internal diameters of aortic images were measured using VEVO 2100 software, version 1.5.0. All recordings were made by a cardiologist and a technician who were blinded to animal genotype and treatment. Measurements were taken before lentivirus administration or the corresponding treatments to determine the baseline diameters, and measurements were repeated several times during the experiment.
For in vivo transduction experiments, animals were anesthetized (ketamine/xilacine) and a small incision was made to expose the right jugular vein (Esteban et al., 2011). Virus solution ([…] in PBS) was inoculated directly into the right jugular vein 3 weeks before Ang-II mini-pump implantation or one day before monitoring of aortic dilation. Transduction efficiency was analyzed in aortic samples by immunohistochemistry for GFP and Adamts1.
Images of Masson's trichrome and EVG staining were analyzed for collagen content with ImageJ (http://rsbweb.nih.gov/ij/index.html) and with MetaMorph (Molecular Devices; Sunnyvale, California) for quantification of elastin breaks. For each animal, elastin breaks were counted in 3 sections and the mean number of breaks was calculated. Images were processed for presentation with Photoshop and Illustrator (Adobe). […]
Aortic extracts were prepared from whole aortas as described for immunoblot assays, but in the absence of DTT. Extracts (15 μg) were fractionated under nonreducing conditions on SDS-polyacrylamide gels containing 1% gelatin. […]

For a further test, the system named is Adamts1+/− mice. Briefly: Treatment of Adamts1+/− mice (aortic diameter, BP, histology). The test is classed as in vivo, mouse.
Excerpt: as §1, §2, §3
Images of Masson's trichrome and EVG staining were analyzed for collagen content with ImageJ (http://rsbweb.nih.gov/ij/index.html) and with MetaMorph (Molecular Devices; Sunnyvale, California) for quantification of elastin breaks. For each animal, elastin breaks were counted in 3 sections and the mean number of breaks was calculated. Images were processed for presentation with Photoshop and Illustrator (Adobe).

The test system of the next test is Fbn1C1039G/+ mice. Briefly: Treatment of Fbn1C1039G/+ mice (Marfan syndrome model). The test is classed as in vivo, mouse.
Excerpt: as §1, §2
(§4) For in vivo ultrasound images, the aortic diameter was monitored in isofluorane-anesthetized mice (2% isofluorane) by high-frequency ultrasound with a VEVO 2100 echography device (VisualSonics, Toronto, Canada). Maximal internal diameters of aortic images were measured using VEVO 2100 software, version 1.5.0. […]
Images of Masson's trichrome and EVG staining were analyzed for collagen content with ImageJ (http://rsbweb.nih.gov/ij/index.html) and with MetaMorph (Molecular Devices; Sunnyvale, California) for quantification of elastin breaks. For each animal, elastin breaks were counted in 3 sections and the mean number of breaks was calculated. […]

In the next test the test system is mouse model of mild MFS. As to conditions: cited from earlier work.
In another test the test system is model of severe MFS. As to conditions: compared with mild MFS model; cited from earlier work.
For another test, the system named is aortic root enlargement. As to conditions: randomized clinical trials, cited from earlier work.
The subject of a further test is wt mice. Nature of the test: Ang-II treatment of wt mice for 28 days (ultrasonography of aorta). It counts as in vivo, mouse.
Excerpt: Animal procedures were approved by the CNIC Ethics Committee and conformed to European Union guidelines for the care and experimental use of animals. Adamts1+/− mice were obtained from the European Mouse Mutant Archive [(EM:02291) B6; 129P2-Adamts1<tm1Dgen>/H] and carried a LacZ-Neo cassette to replace a genomic sequence (c7784) between exon1 and 2 in the Adamts1 target allele. Fbn1C1039G/+ mice (Judge et al., 2004), harboring a mutation in the Fbn1 gene, and Nos2−/− mice (Laubach et al., 1995) were obtained from Jackson Laboratories (JAX mice stock #012885 and 007072, respectively). These 3 strains had been previously backcrossed to C57BL/6 for more than nine generations. […]
as §4
To investigate the contribution of Adamts1 to Ang-II-elicited aortic dilation and aneurysm, we used Adamts1 deficient mice from the European Mouse Mutant Archive (EM: 02291). […] No aneurysms or lethal dissections were detected in Adamts1+/− mice in the absence of Ang-II at this age.

[4] abbreviates: L-NAME 21 days, end of experiment.

Chain of NOS2 (P35228 whole entry, the tested form may be a part): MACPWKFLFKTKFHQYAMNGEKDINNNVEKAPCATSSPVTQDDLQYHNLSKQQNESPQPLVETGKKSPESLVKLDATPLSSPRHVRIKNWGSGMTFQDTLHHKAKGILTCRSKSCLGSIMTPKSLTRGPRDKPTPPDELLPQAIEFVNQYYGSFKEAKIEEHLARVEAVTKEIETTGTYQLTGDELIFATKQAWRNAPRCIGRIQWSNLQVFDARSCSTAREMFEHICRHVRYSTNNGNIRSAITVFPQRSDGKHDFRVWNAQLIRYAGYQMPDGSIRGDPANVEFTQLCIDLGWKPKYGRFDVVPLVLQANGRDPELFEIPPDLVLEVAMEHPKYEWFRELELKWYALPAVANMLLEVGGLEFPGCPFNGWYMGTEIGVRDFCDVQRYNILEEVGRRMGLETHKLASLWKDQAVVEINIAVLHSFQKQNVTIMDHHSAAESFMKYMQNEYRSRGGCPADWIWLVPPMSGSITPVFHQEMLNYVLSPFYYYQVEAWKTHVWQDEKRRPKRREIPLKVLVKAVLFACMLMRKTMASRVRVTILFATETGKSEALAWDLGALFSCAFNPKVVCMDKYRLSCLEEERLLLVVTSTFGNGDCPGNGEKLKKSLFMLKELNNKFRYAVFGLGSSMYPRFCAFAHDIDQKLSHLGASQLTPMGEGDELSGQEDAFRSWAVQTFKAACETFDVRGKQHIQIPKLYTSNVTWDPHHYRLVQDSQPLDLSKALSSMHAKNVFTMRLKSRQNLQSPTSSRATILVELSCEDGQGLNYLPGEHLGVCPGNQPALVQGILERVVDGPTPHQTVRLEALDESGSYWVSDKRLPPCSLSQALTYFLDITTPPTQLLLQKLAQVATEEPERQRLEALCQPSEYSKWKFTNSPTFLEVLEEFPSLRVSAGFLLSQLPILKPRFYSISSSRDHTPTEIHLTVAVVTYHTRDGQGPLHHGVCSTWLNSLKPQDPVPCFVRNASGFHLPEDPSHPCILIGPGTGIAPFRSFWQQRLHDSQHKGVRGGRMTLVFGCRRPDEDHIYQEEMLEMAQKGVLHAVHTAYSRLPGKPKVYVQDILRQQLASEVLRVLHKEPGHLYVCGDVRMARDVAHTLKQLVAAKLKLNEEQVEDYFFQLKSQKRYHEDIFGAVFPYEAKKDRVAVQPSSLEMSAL

For `CC(=N)NCc1cccc(CN)c1` [1400W], the “NO production (total NOx in conditioned media, NO staining)” value (shortened to “NO production”) at Nos2 [1] was “reduced the expression of NO”.

Take `Clc1ccccc1C(c1ccccc1)(c1ccccc1)n1ccnc1` [Clotrimazole]: at Nos2 [1], the “NO production” value is listed as “reduced the expression of NO”. In addition, on NOS2 [2], the “Dimerization of NOS2” value is on record as “inhibits the dimerization of NOS2”.

For the compound `CC(=N)NCCS(=O)(=O)CC(N)C(=O)O` (centres unmarked) [GW273629], the “NO production” value at Nos2 [1] is given as “reduced the expression of NO”.

On to `COC(=O)[C@@H](N)CCCNC(=N)N[N+](=O)[O-].Cl` [L-NAME, Nω-Nitro-L-arginine methyl ester hydrochloride], for which the “Mmp9 activation (zymography)” value in test [3] (aortic extracts from siAdamts1-transduced mice) is “prevented Mmp9 activation”. Also, in test [3], the “Elastic fiber fragmentation (elastolysis, elastin breaks)” value is given as “blocked elastolysis”; the “Fibrosis (collagen content)” value was “decreased the fibrosis”; the “Systolic and diastolic BP (hypotension) in siAdamts1-transduced mice” value was “hypertensive effect”. Besides, the “Aortic dilation (AsAo and AbAo diameter) induced by siAdamts1” value in test [3] (losartan 10 mg/kg/day minipump) was “prevented siAdamts1-induced dilation of the AsAo and the AbAo”. The “Time to complete reversal of aortic dilation” value in the test on Adamts1+/− mice (Adamts1+/− and MFS mice) was 1 week. In addition, in the test on Adamts1+/− mice (setting [4]), the Elastic fiber fragmentation entry is “decreased elastic fiber fragmentation” and the “Fibrosis (collagen content)” value is “diminished fibrosis”. Also, the “AsAo and AbAo diameter” value in the test with Adamts1+/− mice (L-NAME in drinking water for 21 days) is “rapidly decreased AsAo and AbAo diameter to normal levels”. The “Systolic and diastolic BP” value in the test on Adamts1+/− mice (L-NAME in drinking water for 21 days, end of experiment) is “reverted the systolic and diastolic hypotension”. Further, the “AsAo and AbAo diameters” value in the test with Fbn1C1039G/+ mice (12-week-old mice, L-NAME in drinking water for 21 days) was “rapidly decreased the AsAo and AbAo diameters to normal levels”. Also, in the test on Fbn1C1039G/+ mice (L-NAME 21 days, AsAo and AbAo), the Collagen content entry was “unaffected”. Further, in the test with Fbn1C1039G/+ mice (setting [4]), the Elastic fiber fragmentation result is “diminished elastic fiber fragmentation”; the “Systolic and diastolic BP” value was “augmented the systolic and diastolic BP”. The “NO production” value on Nos2 [1] is recorded as “reduced the expression of NO”.

Turning to `CC(=N)NCCCC[C@H](N)C(=O)O` [L-NIL], at Nos2 [1], the “NO production” value is reported as “reduced the expression of NO”.

For the compound `CCCCc1nc(Cl)c(CO)n1Cc1ccc(-c2ccccc2-c2nn[nH]n2)cc1` [losartan], in [3], the “Elastic fiber fragmentation (elastolysis, elastin breaks)” value was “did not reduce elastic fiber fragmentation”; the “Fibrosis (collagen content)” value is “did not reduce elastic fiber fragmentation or fibrosis”; the “Systolic and diastolic BP (hypotension) in siAdamts1-transduced mice” value is given as “did not prevent hypotension”. Besides, the “Aortic dilation (AsAo and AbAo diameter) induced by siAdamts1” value in [3] (losartan 10 mg/kg/day minipump) was “neither treatment inhibited aortic dilation”. In addition, in test [3] (siCtl control mice, losartan 10 mg/kg/day minipump), the “BP in control mice” value was “reduced BP in control mice”. In the test on mouse model of mild MFS, the Aortic dilation result is on record as “these processes are also inhibited” and the Elastic lamellae fragmentation entry is on record as “these processes are also inhibited”. In addition, the “Effectiveness in severe MFS model” value in the test with model of severe MFS was “less effective”. Moreover, the “Reduction of the rate of aortic root enlargement” value in the test on aortic root enlargement (versus atenolol) is recorded as “no more effective”. Moreover, the “Benefit of dual therapy with atenolol” value in the test on aortic root enlargement is “no additional benefit”.

In the case of Aminoguanidine, in the test with Adamts1+/− mice (AG 1.5 gr/1 in drinking water), the “Aortic diameter (ascending and abdominal aorta)” value was “reduces aortic diameter”. For the same compound, the “NO production” value at Nos2 [1] is “reduced the expression of NO”.

For the compound “Angiotensin-II (DRVYIHPF; Angiotensin-2; UniProt P01019 25-32, looked up) [Ang-II]”, the “AA or lethal aortic dissections” value in the test with Adamts1+/− mice (Adamts1+/− mice, Ang-II 28 days) was “readily triggered their formation”; in the test on wt mice (wt mice, Ang-II 28 days), “barely induced AA or lethal aortic dissections”. Also, the “Aortic dilation (AR, AsAo, AbAo)” value in the test on wt mice (8-week-old wt mice, Ang-II for 28 days, 1 μg/kg/min minipump) is given as “promoted generalized aortic dilation”.
